Non-standard residues stand in square brackets, D forms with d. Residues, ends and D or L forms follow the SMILES beside them. Tic = O=C(O)[C@@H]1Cc2ccccc2CN1; Orn = NCCC[C@H](N)C(=O)O; Aze = O=C(O)[C@@H]1CCN1; Aib = CC(C)(N)C(=O)O
Each compound was assayed against T1, human UTR2 receptor (Homo sapiens, UniProt Q9UKP6) (assay: Calcium mobilization assay, antagonist activity at urotensin receptor). Conditions: pre-incubation before urotensin, 300-19 cells with human UTR2, read-out: IC50% (μM) ± SD, Urotensin receptor.
T1 construct: expressed in transfected cells; host or cells: mouse pre-B cell line 300-19
T1 sequence (Q9UKP6 1-389): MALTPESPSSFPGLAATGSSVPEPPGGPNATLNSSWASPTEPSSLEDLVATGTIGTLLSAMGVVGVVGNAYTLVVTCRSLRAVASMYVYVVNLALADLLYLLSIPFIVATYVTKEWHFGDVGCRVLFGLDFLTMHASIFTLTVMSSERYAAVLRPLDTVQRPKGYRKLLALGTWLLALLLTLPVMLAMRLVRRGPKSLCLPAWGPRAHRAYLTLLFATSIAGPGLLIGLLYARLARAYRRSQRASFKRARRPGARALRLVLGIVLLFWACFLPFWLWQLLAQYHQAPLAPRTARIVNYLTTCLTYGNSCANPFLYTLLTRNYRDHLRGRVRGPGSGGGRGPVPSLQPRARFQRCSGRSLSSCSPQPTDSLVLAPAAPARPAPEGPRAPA
Type: cell-based
Protocol: (§1) The mouse pre-B cell line 300-19 was stably transfected with the cDNA encoding the human UTR2 receptor (GenBank Acc#NM_018949), and expression was confirmed with a positive calcium signal in response to human urotensin (Sigma Aldrich). Increases in intracellular calcium were monitored using a Flexstation 384 (Molecular Devices, Sunnyvale, Calif.). The cells were batch loaded with the Calcium 3 Assay kit (Molecular Devices) in assay buffer (Hanks Balanced salt solution, HBSS, 20 mM HEPES, pH 7.4, 0.1% BSA) for 1 h at room temperature and labeled cells were dispensed into either black 96 well or 384 well assay plates (Greiner). Calcium mobilization induced by urotensin or compounds was measured in the Flexstation 384 (excitation, […]) for 70 seconds. Agonist activity was determined by direct addition of ligand or peptides, while antagonists were identified by pre-incubation of compounds with cells prior to urotensin addition. A dose response curve (compound concentration versus % maximum response for urotensin) was determined for each active agonist and antagonist and was fitted to a four parameter logistic equation using SoftmaxPro 4.6 (Molecular Devices), from which EC50% and IC50% values were calculated.

| IC50 [µM] | SMILES |
| --- | --- |
| 6.2 ± 1.5 | CC[C@H](C)[C@@H]1NC(=O)[C@@H]2Cc3ccccc3CN2C(=O)[C@H]2CCCN2C(=O)[C@H]([C@@H](C)CC)NC(=O)C(C)(C)NC(=O)[C@@H](CCCNC(=N)N)NC1=O [Example 19] (cyclo(I[dR][Aib]I[dP][Tic])) |

Each compound was assayed against T1, human UTR2 receptor (assay: Calcium mobilization assay, agonist activity at urotensin receptor). Conditions: mouse pre-B 300-19 cells transfected with human UTR2, read-out: EC50% (nM) ± SD, Urotensin receptor.
Type: cell-based
Protocol: as §1

| EC50 [nM] | SMILES |
| --- | --- |
| 54 ± 12 | NCCCC[C@@H]1NC(=O)[C@H](Cc2c[nH]c3ccccc23)NC(=O)[C@H](Cc2ccccc2)NC(=O)[C@@H]2Cc3ccccc3CN2C(=O)[C@H]2CCCN2C(=O)[C@H](Cc2ccc(O)cc2)NC1=O [Example 1] (cyclo(FWKY[dP][Tic])) |
| 82 ± 13 | NCCCC[C@@H]1NC(=O)[C@H](Cc2c[nH]c3ccccc23)NC(=O)[C@H](CCC(N)=O)NC(=O)[C@@H]2Cc3ccccc3CN2C(=O)[C@H]2CCCN2C(=O)[C@H](Cc2ccc(O)cc2)NC1=O [Example 3] (cyclo(QWKY[dP][Tic])) |
| 20 ± 5 | NCCCC[C@@H]1NC(=O)[C@H](Cc2c[nH]c3ccccc23)NC(=O)[C@H](Cc2ccccc2)NC(=O)[C@@H]2CCN2C(=O)[C@H]2CCCN2C(=O)[C@H](Cc2ccc(O)cc2)NC1=O [Example 4] (cyclo(FWKY[dP][Aze])) |
| 45 ± 22 | CC[C@H](C)[C@@H]1NC(=O)[C@@H]2CCN2C(=O)[C@H]2CCCN2C(=O)[C@H](Cc2ccc(O)cc2)NC(=O)[C@H](CCCCN)NC(=O)[C@H](Cc2c[nH]c3ccccc23)NC1=O [Example 5] (cyclo(IWKY[dP][Aze])) |
| 134 ± 61 | NCCCC[C@@H]1NC(=O)[C@H](Cc2c[nH]c3ccccc23)NC(=O)[C@H](CCC(N)=O)NC(=O)[C@@H]2CCN2C(=O)[C@H]2CCCN2C(=O)[C@H](Cc2ccc(O)cc2)NC1=O [Example 6] (cyclo(QWKY[dP][Aze])) |
| 286 ± 66 | C[C@@H](O)[C@@H]1NC(=O)[C@@H]2CCN2C(=O)[C@H]2CCCN2C(=O)[C@H](Cc2ccc(O)cc2)NC(=O)[C@H](CCCCN)NC(=O)[C@H](Cc2c[nH]c3ccccc23)NC1=O [Example 7] (cyclo(TWKY[dP][Aze])) |

More lines, now with the values behind:

| SMILES | EC50 [nM] |
| --- | --- |
| CC[C@H](C)[C@@H]1NC(=O)[C@@H]2Cc3ccccc3CN2C(=O)[C@H]2CCCN2C(=O)[C@H](Cc2ccc(O)cc2)NC(=O)[C@H](CCCCN)NC(=O)[C@H](Cc2c[nH]c3ccccc23)NC1=O [Example 2] (cyclo(IWKY[dP][Tic])) | 68 ± 32 |
| COc1ccc2c3c1CNC(=O)[C@H](Cc1ccc(O)cc1)NC(=O)[C@H](CCCCN)NC(=O)[C@H](Cc1c[nH]c4ccccc14)NC(=O)[C@H](Cc1ccccc1)NC(=O)Cc1c(OC)ccc(c1O3)C2(C)C [Example 8] | 18 ± 3 |
| COc1ccc2c3c1CNC(=O)[C@H](Cc1ccc(O)cc1)NC(=O)[C@H](CCCCN)NC(=O)[C@H](Cc1c[nH]c4ccccc14)NC(=O)[C@H]([C@@H](C)O)NC(=O)Cc1c(OC)ccc(c1O3)C2(C)C [Example 9] | 160 ± 81 |
| COc1ccc2c3c1CNC(=O)[C@H](Cc1ccc(O)cc1)NC(=O)[C@H](CCCCN)NC(=O)[C@H](Cc1c[nH]c4ccccc14)NC(=O)[C@H](CCC(N)=O)NC(=O)Cc1c(OC)ccc(c1O3)C2(C)C [Example 10] | 170 ± 40 |
| CC[C@H](C)[C@@H]1NC(=O)Cc2c(OC)ccc3c2Oc2c(ccc(OC)c2CNC(=O)[C@H](Cc2ccc(O)cc2)NC(=O)[C@H](CCCCN)NC(=O)[C@H](Cc2c[nH]c4ccccc24)NC1=O)C3(C)C [Example 11] | 192 ± 14 |
| COc1ccc2c3c1CNC(=O)[C@H](Cc1c[nH]cn1)NC(=O)[C@H](Cc1ccc(O)cc1)NC(=O)[C@H](CCCCN)NC(=O)[C@H](Cc1c[nH]c4ccccc14)NC(=O)Cc1c(OC)ccc(c1O3)C2(C)C [Example 12] | 218 |
| COc1ccc2c3c1CNC(=O)[C@H](Cc1ccc(O)cc1)NC(=O)[C@H](CCCCN)NC(=O)[C@H](Cc1c[nH]c4ccccc14)NC(=O)[C@H](CCC(=O)O)NC(=O)Cc1c(OC)ccc(c1O3)C2(C)C [Example 13] | 274 ± 5 |
| CC[C@H](C)[C@@H]1NC(=O)C[C@@H]2NC(=O)[C@@H]3C[C@@H](CN3C2=O)NC(=O)[C@H](Cc2ccc(O)cc2)NC(=O)[C@H](CCCCN)NC(=O)[C@H](Cc2c[nH]c3ccccc23)NC1=O [Example 14] | 189 ± 13 |

These compounds were tested against T2, human CCR10 (Homo sapiens, UniProt P46092) (assay: Calcium flux antagonism assay with human CCL27). Conditions: 300-19 cells with human CCR10, human CCL27, read-out: IC50% (μM), CCR10 receptor.
T2 construct: expressed in transfected cells; host or cells: mouse pre-B cell line 300-19
T2 sequence (P46092 1-362): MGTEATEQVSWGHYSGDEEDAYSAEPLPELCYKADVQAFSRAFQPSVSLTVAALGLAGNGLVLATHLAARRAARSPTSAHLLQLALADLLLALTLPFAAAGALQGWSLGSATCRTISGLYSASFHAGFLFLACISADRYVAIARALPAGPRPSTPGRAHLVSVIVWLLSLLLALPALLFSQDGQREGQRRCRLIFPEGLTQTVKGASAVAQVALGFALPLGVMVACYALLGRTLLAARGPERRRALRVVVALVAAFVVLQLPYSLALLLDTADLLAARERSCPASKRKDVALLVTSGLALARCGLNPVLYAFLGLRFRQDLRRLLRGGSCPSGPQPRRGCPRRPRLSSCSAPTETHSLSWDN
Type: cell-based
Protocol: as §1
Peptides for CCR10 (Marchese et. al. 1994, Homey et. al.) and CXCR3 (Loetscher et. al. 1998, Marchese et. al. 1995) antagonism were assayed in a mouse pre-B cell line 300-19 stably transfected with either human CCR10 or CXCR3 (Marchese et. al. 1995). Antagonism at each receptor was measured with a calcium flux assay in these cells as described above for UTR2 assays using human CCL27 and human CXCL10 (Cole et. al.) for CCR10 and CXCR3 respectively.
Selectivity was measured using the calcium flux assay on a panel of human chemokine receptor bearing cell lines (CCR1, CCR2, CCR3, CCR4, CCR5, CCR6, CCR7, CCR8, CCR9, CCR10, CXCR1, CXCR2, CXCR2, CXCR4, CXCR6 and CXCCR1) using the same method as above

| IC50 [µM] | SMILES |
| --- | --- |
| 0.31 | CC(C)[C@H]1NC(=O)[C@H](Cc2c[nH]c3ccccc23)NC(=O)[C@@H]2Cc3ccccc3CN2C(=O)[C@H]2CCCN2C(=O)[C@H](CCCN)NC(=O)[C@H](Cc2c[nH]c3ccccc23)NC1=O [Example 17] (cyclo(W[dV]W[Orn][dP][Tic])) |
| 0.29 | CC(C)[C@H]1NC(=O)[C@H](Cc2c[nH]c3ccccc23)NC(=O)[C@@H]2Cc3ccccc3CN2C(=O)[C@H]2CCCN2C(=O)[C@H](CCCCN)NC(=O)[C@H](Cc2c[nH]c3ccccc23)NC1=O [Example 18] (cyclo(W[dV]WK[dP][Tic])) |

Source: patent publication US10000535B2, “Template-fixed peptidomimetics” (POLYPHOR LTD., priority 2007, dated 2018)
